According to patent US7763267B2, “Versatile high load concentrate compositions for control of ecto- parasites” (Wyeth LLC, priority 2005, dated 2010):

Test system: biting lice
Assay: Effect of metaflumizone body spray on biting lice of sheep
Format: in vivo
Settings: 10 mg/kg as body spray (1500 ml/animal), vs untreated control lice/animal
Method: 12.59 grams of metaflumizone is added to dimethyl isosorbide using mild heating (approximately 40° C.). To this solution is added 109.92 grams Cremophor® EL (polyethoxylated castor oil, sold by Basf Aktiengesellschaft), with stirring, followed by q.s. 200 ml 1-methoxy-2-propyl acetate The resultant solution is stored until ready for use, whereupon it can be diluted with water for use as a spray (17 ml of concentrate diluted to 3500 ml with water), or with water for use as a feed/water additive (in approximately the same ratio).
This formulation was diluted with water to a metaflumizone concentration of 10 mg/kg bodyweight, and applied to sheep at 1500 ml/animal to test the effect of metaflumizone on biting lice

Measured: % Efficacy

N#Cc1ccc(CC(=NNC(=O)Nc2ccc(OC(F)(F)F)cc2)c2cccc(C(F)(F)F)c2)cc1 [metaflumizone, (E Z)-2-[2-(4-cyanophenyl)-1-[3-(trifluoromethyl)phenyl]ethylidene]-N-[4-(trifluoromethoxy)phenyl]hydrazinecarboxamide]
100%: 7 days after treatment | 14 days after treatment | 21 days after treatment | 28 days after treatment
